Measurements as given in paper PMC9574855 (Journal of Medicinal Chemistry, 2022).

Tests used:
ITPK1 = settings: 300 nM, KiNativ, Jurkat cell lysate; cited from earlier work
LOK = settings: 300 nM, KiNativ, Jurkat cell lysate; cited from earlier work
[1] = tested on: 24 human lipid kinases and 83 human protein kinases; settings: 300 nM, KiNativ; cited from earlier work
403 WT human kinases = settings: 1 μM, published data, apilimod; cited from earlier work
bald GFP lentivirus = type: cell-based; settings: Calu-3 cells, 1 μM
SH-SY5Y cells = assay: Lysosomal staining; type: cell-based, human; settings: 5 μM, 24 h
[2] = tested on: lentivirus pseudotyped with the SARS-CoV-2 spike glycoprotein; type: cell-based; settings: Calu-3 cells, 1 μM
[3] = tested on: His6-SARS-CoV-2 spike protein uptake by HEK293T-ACE2 cells; assay: Spike uptake assay in HEK293T-ACE2 cells; type: cell-based, human; settings: 1 μM
[4] = tested on: His6-SARS-CoV-2 spike protein uptake by Calu-3 cells; assay: Spike uptake assay in Calu-3 cells; type: cell-based; settings: 1 μM
[5] = tested on: His6-SARS-CoV-2 spike protein uptake by Caco-2 cells; assay: Spike uptake assay in Caco-2 cells; type: cell-based; settings: 1 μM

| Structure (SMILES) | inhibition of ITPK1 (ITPK1) [%] | inhibition of LOK (LOK) [%] | Gini coefficient [1] | # scanMAX kinases with PoC < 10 (403 WT human kinases) | entry of bald lentivirus (bald GFP lentivirus) | vacuoles in LysoTracker-stained cells (SH-SY5Y cells) | entry of lentivirus pseudotyped with SARS-CoV-2 spike glycoprotein [2] | His6-SARS-CoV-2 spike protein uptake [3] | His6-SARS-CoV-2 spike protein uptake [4] | His6-SARS-CoV-2 spike protein uptake [5] |
| --- | --- | --- | --- | --- | --- | --- | --- | --- | --- | --- |
| Cc1cccc(/C=N/Nc2cc(N3CCOCC3)n3nc(-c4ccncc4)cc3n2)c1 [APY0201, 2-[7-(4-morpholinyl)-2-(4-pyridinyl)pyrazolo[1,5-a]pyrimidin-5-yl]hydrazone, 3-methyl-benzaldehyde] | > 50 | > 50 | 0.753 | – | – | – | – | – | – | – |
| Cc1cccc(/C=N/Nc2cc(N3CCOCC3)nc(OCCc3ccccn3)n2)c1 [Apilimod, 4-(6-(2-(3-Methylbenzylidene)hydrazinyl)-2-(2-(pyridin-2-yl)ethoxy)pyrimidin-4-yl)morpholine, reference compound] | – | – | – | 1 | entry of bald lentivirus was not impacted | vacuoles are present | inhibition of pseudoviral entry | significantly reduced spike protein uptake | efficiently reduced spike protein uptake | efficiently reduced spike protein uptake |
